Series [1] is described as follows: Boiling point (volatility) of aminoalkanol. The series is classed as physicochemical. The text has this: Also, to insure operational efficiency with minimal losses of the amino compound, the amino compound should have a relatively low volatility. […]
It can be seen that in each case the boiling points increase relative to the respective parent compound while the pKa remains constant.

Another series is described as follows: pKa of aminoalkanol. The series is classed as physicochemical. The following applies: at 20° C.
For series [2] the following is noted: pressure not stated; background; cited from earlier work.
Series [3] in a line: 15N NMR chemical shift as a means of determining selectivity to H2S removal. It is filed as physicochemical. The following applies: 90% by wt. amine in 10% by wt. D2O, 35° C.; liquid ammonia at 25° C. as zero reference. The protocol: Another means for determining whether an amino compound is selective to H2 S removal is by measuring its 15N nuclear magnetic resonance (NMR) chemical shift. […] D2 O at 35° C. is measured by a spectrometer using liquid (neat) ammonia at 25° C. as a zero reference value. For example, N-(2-hydroxyethoxyethyl)pyrrolidine (HEEP) has a ^15 N NMR chemical shift value of δ+53.2 ppm whereas diethylmonoethanolamine (DEAE), N-methyl-N-tertiarybutylaminoethoxyethanoland methyldiethanolamine (MDEA) have ^15 N NMR chemical shift values of δ+43.7, δ+45.0 and δ+27.4 ppm, respectively.

Molecules are shown by their SMILES. Read-outs that look alike come from different tables or passages of the source.

One may read the boiling point as the temperature of boiling at a given pressure. The term pKa denotes the negative logarithm of the acid dissociation constant. `CN1CCCCC1CCO` (stereo not drawn) [MHEPi, N-methyl-2-hydroxyethylpiperidine]: the boiling point in series [1] (at 760 mm) was determined as 233 °C. Also, in the series “pKa of aminoalkanol”, the pKa was 9.90.

In turn, `OCCCN1CCCC1` [drawing 3] returned a boiling point in series [1] (at 13 mm) of 101 °C. In “pKa of aminoalkanol”, this compound registered a pKa of 10.20.

In series [1] (at 1 mm), `CC(O)COC(C)CN1CCCC1` (stereo not drawn) registered a boiling point of 100 °C. Also, the pKa in the series “pKa of aminoalkanol” turned out to be 10.20.

In the case of `CC(O)CN1CCCC1` (stereo not drawn), the boiling point in series [1] (at 14 mm) turned out to be 75 °C. This compound also returned a pKa in “pKa of aminoalkanol” of 10.20.

In series [1] (at 13 mm), `OCCN1CCCC1` [HEP, N-hydroxyethylpyrrolidine] displayed a boiling point of 80 °C. Besides, the pKa in the series “pKa of aminoalkanol” was found to be 9.95.

In series [1] (at 2 mm), `OCCCCN1CCCC1` [HBP, N-(4-hydroxybutyl) pyrrolidine] yielded a boiling point of 95 °C. The same compound yielded a pKa in the series “pKa of aminoalkanol” of 10.21.

On to `CCN(CC)CCO` [DEAE, diethylmonoethanolamine], for which the boiling point in series [2] was 161 °C.

As for `CC(CCO)N1CCCC1` (stereo not drawn) [H2BP, N-(4-hydroxy-2-butyl)pyrrolidine], the boiling point in series [1] (at 7 mm) was 98 °C. The same compound came in with a pKa in “pKa of aminoalkanol” of 10.25.

In series [1] (at 5 mm), `OCCCN1CCCCC1` [HPPi, N-(3-hydroxypropyl)piperidine] came in with a boiling point of 97 °C. Besides, the pKa in the series “pKa of aminoalkanol” stood at 10.2.

`OCCOCCCN1CCCC1` returned a boiling point in series [1] (at 20 mm) of 140 °C. This compound returned a pKa in “pKa of aminoalkanol” of 10.20.

The compound `OCCCN1CCCC1` [HPP, N-(3-hydroxypropyl)pyrrolidine] returned a boiling point in series [1] (at 13 mm) of 103 °C. Besides, the pKa in “pKa of aminoalkanol” was determined as 10.21.

In series [1] (at 5 mm), `OCCOCCN1CCCC1` [HEEP, N-(2-hydroxyethoxyethyl)pyrrolidine] gave a boiling point of 110 °C. In series [3], the “15N NMR chemical shift (δ+)” value worked out at 53.2 ppm. Moreover, the pKa in “pKa of aminoalkanol” came to 9.95.

The record behind these values is patent publication US4483833A, “Process for selective removal of H2 S from mixtures containing H2 2 with heterocyclic tertiary aminoalkanols” (Exxon Research & Engineering Co., priority 1982, dated 1984).
